Source: the NIST ThermoML archive (doi:10.1016/j.tca.2009.10.010)
Numbers after ± are expanded uncertainties.

How the values were obtained:
[1] = Molar enthalpy of transition or fusion; settings: Crystal; DSC
[2] = Crystal; visual observation

| Molar enthalpy of transition or fusion [1] [kJ/mol] | Normal melting temperature [2] [°C] | Compound |
| --- | --- | --- |
| 22.2 ± 0.66 | 110.50 ± 1.1 | Oc1cccc(O)c1 [1,3-benzenediol] |
| 24.1 ± 0.71 | 130.00 ± 1.1 | Ic1ccc(I)cc1 [1,4-diiodobenzene] |
